Assays:
[1] = target: 5-hydroxytryptamine receptor 6 (Homo sapiens) (UniProt P50406); conditions: Compound concentration 10.0 uM
[2] = target: Delta-type opioid receptor (Homo sapiens) (UniProt P41143); conditions: Compound concentration 10.0 uM
Rattus norvegicus [3] = species: Rattus norvegicus; test: Inhibition of Glutamate, NMDA, Phencyclidine at 10 µM in the Eurofins-Panlabs radioligand binding assay (Eurofins_assay_233000); assay type: protein-complex assay; conditions: Compound concentration 10.0 uM
[4] = target: Muscarinic acetylcholine receptor M2 (Homo sapiens) (UniProt P08172); conditions: Compound concentration 10.0 uM
[5] = target: T1, Alpha-2B adrenergic receptor (Homo sapiens) (UniProt P18089); conditions: Compound concentration 10.0 uM
T1 sequence (whole entry): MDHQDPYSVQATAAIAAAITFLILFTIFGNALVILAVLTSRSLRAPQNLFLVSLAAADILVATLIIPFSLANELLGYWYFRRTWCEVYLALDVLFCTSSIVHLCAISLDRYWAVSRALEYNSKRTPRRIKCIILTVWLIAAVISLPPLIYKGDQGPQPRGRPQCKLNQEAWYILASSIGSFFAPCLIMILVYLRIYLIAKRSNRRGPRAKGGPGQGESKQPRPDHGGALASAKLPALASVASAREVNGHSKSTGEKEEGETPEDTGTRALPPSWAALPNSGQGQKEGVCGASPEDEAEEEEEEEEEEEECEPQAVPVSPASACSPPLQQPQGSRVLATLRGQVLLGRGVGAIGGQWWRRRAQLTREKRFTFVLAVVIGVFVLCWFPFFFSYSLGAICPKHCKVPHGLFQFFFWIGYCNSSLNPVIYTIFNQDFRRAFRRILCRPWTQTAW

[6] = target: Somatostatin receptor type 3 (Homo sapiens) (UniProt P32745); test: Somatostatin sst3 Eurofins-Panlabs radioligand binding assay; conditions: Compound concentration 10.0 uM
[7] = target: Type-1 angiotensin II receptor (Homo sapiens) (UniProt P30556); test: Angiotensin AT1 Eurofins-Panlabs radioligand binding assay; conditions: Compound concentration 10.0 uM
[8] = target: Endothelin receptor type B (Homo sapiens) (UniProt P24530); conditions: Compound concentration 10.0 uM
[9] = target: Histamine H1 receptor (Homo sapiens) (UniProt P35367); conditions: Compound concentration 10.0 uM
[10] = target: Cannabinoid receptor 2 (Homo sapiens) (UniProt P34972); conditions: Compound concentration 10.0 uM
Rattus norvegicus [11] = species: Rattus norvegicus; test: Testosterone Eurofins-Panlabs radioligand binding assay; parameters: ligand concentration 1.5 nM; conditions: Compound concentration 10.0 uM
[12] = target: Polyunsaturated fatty acid 5-lipoxygenase (Homo sapiens) (UniProt P09917); test: Lipoxygenase 5-LO Eurofins-Panlabs enzyme assay; conditions: Compound concentration 10.0 uM
[13] = target: Inositol 1,4,5-trisphosphate-gated calcium channel ITPR1 (Homo sapiens) (UniProt Q14643); test: Inositol Trisphosphate IP3 Eurofins-Panlabs radioligand binding assay; conditions: Rattus norvegicus; Compound concentration 10.0 uM
[14] = Inhibition of Atrial Natriuretic Factor (ANF) at 10 µM in the Eurofins-Panlabs radioligand binding assay (Eurofins_assay_211000); conditions: Cavia porcellus
[15] = target: Interstitial collagenase (Homo sapiens) (UniProt P03956); test: Inhibition of Peptidase, Matrix Metalloproteinase-1 (MMP-1) at 10 µM in the Eurofins-Panlabs enzyme assay (Eurofins_assay_114110); conditions: Compound concentration 10.0 uM
[16] = target: Neprilysin (Homo sapiens) (UniProt P08473); test: Peptidase, Metalloproteinase, Neutral Endopeptidase Eurofins-Panlabs enzyme assay; conditions: Compound concentration 10.0 uM
[17] = target: Oxytocin receptor (Homo sapiens) (UniProt P30559); test: Oxytocin Eurofins-Panlabs radioligand binding assay; conditions: Compound concentration 10.0 uM
[18] = target: GABA-A receptor; alpha-5/beta-3/gamma-2 (Homo sapiens) (UniProt P18507+P28472+P31644); test: GABA-alpha5beta3gamma2 Eurofins-Panlabs radioligand binding assay; assay type: protein-complex assay; parameters: ligand concentration 1 nM; conditions: Compound concentration 10.0 uM
[19] = target: Cysteinyl leukotriene receptor 1 (Homo sapiens) (UniProt Q9Y271); test: Inhibition of Leukotriene, Cysteinyl CysLT1 at 10 µM in the Eurofins-Panlabs radioligand binding assay (Eurofins_assay_250460); parameters: ligand concentration 0.3 nM, non-specific ligand with concentration 0.3 µM Leukotriene D4, incubation time 30 min, incubation temperature 25 °C; conditions: Compound concentration 10.0 uM
[20] = target: voltage-gated sodium channel, site 2 (Rattus norvegicus, UniProt F1LQQ7+O08562+O88420+O88457+P04774+P04775+P08104+P15389+P15390+Q62968); test: Inhibition of Sodium Channel, Site 2 at 10 µM in the Eurofins-Panlabs radioligand binding assay (Eurofins_assay_279510); assay type: protein assay; parameters: ligand concentration 5 nM, non-specific ligand with concentration 100 µM Veratridine, incubation time 60 min, incubation temperature 37 °C; conditions: male, Wistar, rat whole brain (except cerebellum) membranes, probe [3H] Batrachotoxinin (radioligand, 5 nM), compound concentration 10 uM
[21] = target: Sodium-dependent noradrenaline transporter (Homo sapiens) (UniProt P23975); conditions: Compound concentration 10.0 uM
[22] = target: Insulin receptor (Homo sapiens) (UniProt P06213); test: Protein Tyrosine Kinase, Insulin Receptor Eurofins-Panlabs enzyme assay; parameters: substrate with concentration 10 µg/mL […], incubation time 60 min, incubation temperature 25 °C; conditions: Compound concentration 10.0 uM
[23] = target: Receptor-type tyrosine-protein phosphatase C (Homo sapiens) (UniProt P08575); test: Inhibition of Protein Tyrosine Phosphatase, PTPRC (CD45) at 10 µM in the Eurofins-Panlabs enzyme assay (Eurofins_assay_190010); conditions: Compound concentration 10.0 uM
[24] = target: Histamine H4 receptor (Homo sapiens) (UniProt Q9H3N8); test: Histamine H4 Eurofins-Panlabs radioligand binding assay; conditions: Compound concentration 10.0 uM
[25] = target: Prostacyclin receptor (Homo sapiens) (UniProt P43119); test: Prostanoid IP Eurofins-Panlabs radioligand binding assay; parameters: ligand concentration 5 nM; conditions: Compound concentration 10.0 uM
[26] = target: C-X-C chemokine receptor type 2 (Homo sapiens) (UniProt P25025); test: Inhibition of Chemokine CXCR2 (IL-8RB) at 10 µM in the Eurofins-Panlabs radioligand binding assay (Eurofins_assay_244500); conditions: Compound concentration 10.0 uM
[27] = target: Endothelin-converting enzyme 1 (Homo sapiens) (UniProt P42892); test: Peptidase, Endothelin Converting Enzyme-1 (ECE-1) Eurofins-Panlabs enzyme assay; conditions: Compound concentration 10.0 uM
[28] = target: Neuromedin-K receptor (Homo sapiens) (UniProt P29371); test: Tachykinin NK3 Eurofins-Panlabs radioligand binding assay; parameters: ligand concentration 0.8 nM; conditions: Compound concentration 10.0 uM
[29] = target: Neuropeptide Y receptor type 1 (Homo sapiens) (UniProt P25929); test: Inhibition of Neuropeptide Y Y1 at 10 µM in the Eurofins-Panlabs radioligand binding assay (Eurofins_assay_257010); conditions: Compound concentration 10.0 uM
[30] = target: Thyrotropin-releasing hormone receptor (Homo sapiens) (UniProt P34981); test: Thyrotropin Releasing Hormone (TRH) Eurofins-Panlabs radioligand binding assay; parameters: ligand concentration 3 nM; conditions: Rattus norvegicus; Compound concentration 10.0 uM
[31] = target: Phosphodiesterase 3 (Homo sapiens) (UniProt Q14432+Q13370); test: Inhibition of Phosphodiesterase PDE3 at compound concentration of 10.0 uM in the Eurofins-Panlabs enzyme assay (Eurofins_assay_152000); assay type: protein assay; parameters: substrate with concentration 1.01 uM [3H] cAMP + cAMP, incubation time 20 min, incubation temperature 25 C; conditions: Compound concentration […]

Chain of Receptor-type tyrosine-protein phosphatase C (Homo sapiens) (P08575 whole entry): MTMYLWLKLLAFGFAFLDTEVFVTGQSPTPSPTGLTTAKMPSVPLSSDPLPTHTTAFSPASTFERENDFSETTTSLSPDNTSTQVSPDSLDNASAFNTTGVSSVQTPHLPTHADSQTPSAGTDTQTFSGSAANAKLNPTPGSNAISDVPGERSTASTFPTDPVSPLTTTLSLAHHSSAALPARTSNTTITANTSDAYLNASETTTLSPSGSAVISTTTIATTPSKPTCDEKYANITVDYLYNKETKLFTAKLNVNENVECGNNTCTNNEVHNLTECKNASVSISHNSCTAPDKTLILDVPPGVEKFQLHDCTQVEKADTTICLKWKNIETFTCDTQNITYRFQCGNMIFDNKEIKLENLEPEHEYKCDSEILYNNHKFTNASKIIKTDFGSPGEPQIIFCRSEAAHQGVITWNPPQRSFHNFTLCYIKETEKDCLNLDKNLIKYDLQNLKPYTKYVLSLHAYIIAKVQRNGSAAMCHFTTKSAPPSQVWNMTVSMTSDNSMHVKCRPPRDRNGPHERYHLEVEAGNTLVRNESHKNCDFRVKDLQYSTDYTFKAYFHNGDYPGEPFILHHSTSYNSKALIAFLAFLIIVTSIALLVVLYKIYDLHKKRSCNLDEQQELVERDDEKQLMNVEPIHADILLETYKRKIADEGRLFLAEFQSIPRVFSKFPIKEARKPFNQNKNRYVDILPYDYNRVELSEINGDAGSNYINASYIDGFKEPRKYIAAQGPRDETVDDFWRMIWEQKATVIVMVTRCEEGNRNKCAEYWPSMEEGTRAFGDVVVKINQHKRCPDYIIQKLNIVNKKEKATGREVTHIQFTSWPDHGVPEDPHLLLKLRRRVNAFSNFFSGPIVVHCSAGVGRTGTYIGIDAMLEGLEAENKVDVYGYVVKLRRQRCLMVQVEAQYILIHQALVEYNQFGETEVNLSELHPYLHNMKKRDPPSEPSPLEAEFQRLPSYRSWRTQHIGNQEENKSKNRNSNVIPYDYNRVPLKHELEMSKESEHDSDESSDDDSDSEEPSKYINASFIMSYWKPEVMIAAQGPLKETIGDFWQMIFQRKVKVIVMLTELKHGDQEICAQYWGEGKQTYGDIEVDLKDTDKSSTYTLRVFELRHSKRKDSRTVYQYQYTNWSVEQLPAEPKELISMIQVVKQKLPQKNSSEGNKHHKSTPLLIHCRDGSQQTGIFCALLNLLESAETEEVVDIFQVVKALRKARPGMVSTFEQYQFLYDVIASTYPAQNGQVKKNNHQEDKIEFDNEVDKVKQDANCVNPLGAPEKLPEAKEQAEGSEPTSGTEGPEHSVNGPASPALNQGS
Chain of Type-1 angiotensin II receptor (Homo sapiens) (P30556 whole entry): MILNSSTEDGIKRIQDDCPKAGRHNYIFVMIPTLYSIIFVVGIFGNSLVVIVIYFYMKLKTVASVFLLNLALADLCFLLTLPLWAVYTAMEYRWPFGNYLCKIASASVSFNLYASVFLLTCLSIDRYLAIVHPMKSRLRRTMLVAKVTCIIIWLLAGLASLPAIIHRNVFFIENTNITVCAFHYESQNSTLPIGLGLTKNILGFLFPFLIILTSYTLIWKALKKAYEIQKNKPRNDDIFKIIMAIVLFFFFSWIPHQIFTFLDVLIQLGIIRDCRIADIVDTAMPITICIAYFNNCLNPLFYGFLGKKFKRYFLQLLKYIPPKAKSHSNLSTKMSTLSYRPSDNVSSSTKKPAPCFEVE
Chain of Neuropeptide Y receptor type 1 (Homo sapiens) (P25929 whole entry): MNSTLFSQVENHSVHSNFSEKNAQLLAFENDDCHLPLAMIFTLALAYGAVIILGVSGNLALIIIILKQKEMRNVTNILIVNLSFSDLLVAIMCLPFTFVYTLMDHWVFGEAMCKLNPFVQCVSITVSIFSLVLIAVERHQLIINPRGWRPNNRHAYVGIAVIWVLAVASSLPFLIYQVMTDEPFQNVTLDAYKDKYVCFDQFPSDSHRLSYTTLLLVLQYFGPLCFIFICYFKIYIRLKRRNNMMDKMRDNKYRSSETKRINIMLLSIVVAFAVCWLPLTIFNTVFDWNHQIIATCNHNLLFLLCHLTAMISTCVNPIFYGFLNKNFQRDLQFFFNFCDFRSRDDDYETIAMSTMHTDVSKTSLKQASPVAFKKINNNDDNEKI
Chain of Muscarinic acetylcholine receptor M2 (Homo sapiens) (P08172 whole entry): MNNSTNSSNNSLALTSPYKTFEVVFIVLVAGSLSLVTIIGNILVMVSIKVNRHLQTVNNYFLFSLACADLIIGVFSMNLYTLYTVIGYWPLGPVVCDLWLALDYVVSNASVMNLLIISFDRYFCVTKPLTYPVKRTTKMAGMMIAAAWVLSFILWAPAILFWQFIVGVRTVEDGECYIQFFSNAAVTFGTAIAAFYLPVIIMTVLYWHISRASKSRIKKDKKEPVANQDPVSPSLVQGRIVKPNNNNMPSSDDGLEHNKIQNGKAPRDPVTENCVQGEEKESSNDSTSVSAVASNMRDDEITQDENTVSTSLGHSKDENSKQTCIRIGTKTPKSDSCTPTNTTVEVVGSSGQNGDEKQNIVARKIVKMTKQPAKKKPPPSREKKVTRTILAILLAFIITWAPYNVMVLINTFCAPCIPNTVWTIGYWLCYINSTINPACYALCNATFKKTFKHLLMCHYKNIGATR
Chain of Sodium-dependent noradrenaline transporter (Homo sapiens) (P23975 whole entry): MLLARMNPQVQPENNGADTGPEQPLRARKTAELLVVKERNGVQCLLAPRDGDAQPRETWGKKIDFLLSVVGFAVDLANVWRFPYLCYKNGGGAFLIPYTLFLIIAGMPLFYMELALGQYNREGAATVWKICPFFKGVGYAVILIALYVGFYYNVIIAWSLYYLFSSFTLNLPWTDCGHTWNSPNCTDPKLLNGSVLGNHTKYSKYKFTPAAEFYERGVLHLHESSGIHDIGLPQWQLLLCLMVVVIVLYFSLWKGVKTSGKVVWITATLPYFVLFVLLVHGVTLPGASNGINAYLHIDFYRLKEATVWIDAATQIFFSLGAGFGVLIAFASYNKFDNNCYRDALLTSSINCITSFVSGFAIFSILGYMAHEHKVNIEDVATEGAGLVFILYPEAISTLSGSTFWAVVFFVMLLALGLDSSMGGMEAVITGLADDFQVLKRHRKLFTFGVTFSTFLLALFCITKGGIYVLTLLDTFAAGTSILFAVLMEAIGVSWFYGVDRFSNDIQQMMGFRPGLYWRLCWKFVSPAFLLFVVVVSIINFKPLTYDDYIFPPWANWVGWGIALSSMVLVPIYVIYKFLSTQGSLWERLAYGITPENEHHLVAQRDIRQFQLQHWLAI
Chain of Somatostatin receptor type 3 (Homo sapiens) (P32745 whole entry): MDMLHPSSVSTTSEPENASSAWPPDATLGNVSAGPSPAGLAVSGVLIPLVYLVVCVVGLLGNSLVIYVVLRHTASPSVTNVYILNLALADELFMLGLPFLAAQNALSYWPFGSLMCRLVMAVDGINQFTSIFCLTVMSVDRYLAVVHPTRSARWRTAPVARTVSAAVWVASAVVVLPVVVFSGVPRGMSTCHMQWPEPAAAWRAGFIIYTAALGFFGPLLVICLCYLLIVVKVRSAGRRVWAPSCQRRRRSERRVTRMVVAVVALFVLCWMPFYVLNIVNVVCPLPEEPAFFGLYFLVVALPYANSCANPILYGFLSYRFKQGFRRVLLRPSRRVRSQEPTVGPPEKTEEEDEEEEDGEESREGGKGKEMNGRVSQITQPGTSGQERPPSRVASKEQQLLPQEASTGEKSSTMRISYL
Chain of Cysteinyl leukotriene receptor 1 (Homo sapiens) (Q9Y271 whole entry): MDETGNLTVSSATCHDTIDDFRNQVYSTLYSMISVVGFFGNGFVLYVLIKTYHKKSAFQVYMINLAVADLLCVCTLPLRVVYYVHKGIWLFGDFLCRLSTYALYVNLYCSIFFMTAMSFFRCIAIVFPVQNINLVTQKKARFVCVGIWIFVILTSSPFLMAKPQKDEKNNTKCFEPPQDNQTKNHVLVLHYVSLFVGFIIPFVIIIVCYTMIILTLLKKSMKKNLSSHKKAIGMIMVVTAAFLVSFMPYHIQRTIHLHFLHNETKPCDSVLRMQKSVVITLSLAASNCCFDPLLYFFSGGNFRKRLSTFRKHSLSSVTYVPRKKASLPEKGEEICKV
Chain of Endothelin-converting enzyme 1 (Homo sapiens) (P42892 whole entry): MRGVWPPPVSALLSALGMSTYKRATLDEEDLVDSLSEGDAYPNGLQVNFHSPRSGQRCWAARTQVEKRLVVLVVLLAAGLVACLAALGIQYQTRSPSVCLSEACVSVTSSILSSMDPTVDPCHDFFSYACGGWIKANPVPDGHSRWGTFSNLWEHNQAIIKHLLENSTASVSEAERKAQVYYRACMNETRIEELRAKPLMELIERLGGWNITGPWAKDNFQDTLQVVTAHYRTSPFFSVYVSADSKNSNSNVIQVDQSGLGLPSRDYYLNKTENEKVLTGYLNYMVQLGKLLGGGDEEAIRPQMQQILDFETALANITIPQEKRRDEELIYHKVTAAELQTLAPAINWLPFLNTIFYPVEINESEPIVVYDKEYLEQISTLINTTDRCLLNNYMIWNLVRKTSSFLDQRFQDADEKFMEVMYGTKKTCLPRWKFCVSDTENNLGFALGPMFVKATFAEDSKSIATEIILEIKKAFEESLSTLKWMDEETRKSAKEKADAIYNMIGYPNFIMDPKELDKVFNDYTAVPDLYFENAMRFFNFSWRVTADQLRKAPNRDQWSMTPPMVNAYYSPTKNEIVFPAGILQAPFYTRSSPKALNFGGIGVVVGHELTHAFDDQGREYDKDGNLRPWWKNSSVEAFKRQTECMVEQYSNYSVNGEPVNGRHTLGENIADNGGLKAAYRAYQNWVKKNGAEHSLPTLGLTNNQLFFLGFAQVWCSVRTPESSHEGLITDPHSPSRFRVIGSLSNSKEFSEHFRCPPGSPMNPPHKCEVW
Chain of C-X-C chemokine receptor type 2 (Homo sapiens) (P25025 whole entry): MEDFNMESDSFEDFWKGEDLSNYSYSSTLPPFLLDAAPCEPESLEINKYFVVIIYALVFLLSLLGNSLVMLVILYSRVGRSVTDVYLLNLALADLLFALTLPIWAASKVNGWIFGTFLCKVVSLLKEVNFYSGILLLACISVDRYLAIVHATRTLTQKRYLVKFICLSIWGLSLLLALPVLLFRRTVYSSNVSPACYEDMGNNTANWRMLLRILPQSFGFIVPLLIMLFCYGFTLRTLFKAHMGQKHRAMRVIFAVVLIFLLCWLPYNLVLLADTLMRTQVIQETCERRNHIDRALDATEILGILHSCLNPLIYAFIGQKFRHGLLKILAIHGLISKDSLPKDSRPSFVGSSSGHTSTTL

## N#CC1(c2ccccn2)CCN(Cc2cc(C(=O)N3CCCC3)c(=O)n3ccccc23)CC1
[1]
  inhibition: 2.79%
[2]
  inhibition: -0.84%

## N#CC1(c2ccccn2)CCN(Cc2cc(C(=O)O)c(=O)n3ccccc23)CC1 [MSD-M1PAM]
Rattus norvegicus [3]
  inhibition: 11%
[4]
  inhibition: -8.07%
[5]
  inhibition: -8%
[6]
  inhibition: 2%
[7]
  inhibition: -8%
[8]
  inhibition: -10%
[9]
  inhibition: 5%
[10]
  inhibition: 0%
Rattus norvegicus [11]
  inhibition: -3%
[12]
  inhibition: -7%
[13]
  inhibition: -3%
[14]
  inhibition at 10 µM: 1% (not active)
[15]
  inhibition: 15%
[16]
  inhibition: 3%
[17]
  inhibition: -5%
[18]
  inhibition: 14%
[19]
  inhibition: -5%
[20]
  inhibition at 60 min, 10 µM: 4% (not active)
[21]
  inhibition: 8%
[22]
  inhibition: 1%
[23]
  inhibition: 13%
[24]
  inhibition: 11%
[25]
  inhibition: 22%
[26]
  inhibition: 0%
[27]
  inhibition: 45%
[28]
  inhibition: 7%
[29]
  inhibition: -1%
[30]
  inhibition: 13%
[31]
  inhibition: 1%

Source: ChEMBL document CHEMBL4507295 (2021)
